Results taken from article PMC7753922, “Effect of the anti-parasitic compounds pyrvinium pamoate and artemisinin in enzymatic and culture assays: Data on the search for new anti-echinococcal drugs” (Data in Brief, 2020).
Read-outs that look alike come from different tables or passages of the source.

Assays:
Format in all cases: biochemical
[1] = target: T1, succinate-cytochrome c reductase (mitochondrial complexes II and III) (Echinococcus multilocularis, UniProt Q9TE80); assay: spectrophotometric succinate-cytochrome c reductase assay, mitochondrial fraction; conditions: coupled complex II and III activity, 30 mM potassium phosphate, 1 mM MgCl2, pH 7.5, 25 °C
T1 construct: gene Cytb; coupled activity of native complexes II and III in freeze-thawed enriched mitochondrial fraction of protoscoleces; not purified; with Succinate dehydrogenase [ubiquinone] flavoprotein subunit, mitochondrial; Succinate dehydrogenase [ubiquinone] iron-sulfur subunit, mitochondrial; Succinate dehydrogenase [ubiquinone] cytochrome b large subunit, mitochondrial; Succinate dehydrogenase [ubiquinone] cytochrome b small subunit, mitochondrial
T1 sequence (Q9TE80 1-355): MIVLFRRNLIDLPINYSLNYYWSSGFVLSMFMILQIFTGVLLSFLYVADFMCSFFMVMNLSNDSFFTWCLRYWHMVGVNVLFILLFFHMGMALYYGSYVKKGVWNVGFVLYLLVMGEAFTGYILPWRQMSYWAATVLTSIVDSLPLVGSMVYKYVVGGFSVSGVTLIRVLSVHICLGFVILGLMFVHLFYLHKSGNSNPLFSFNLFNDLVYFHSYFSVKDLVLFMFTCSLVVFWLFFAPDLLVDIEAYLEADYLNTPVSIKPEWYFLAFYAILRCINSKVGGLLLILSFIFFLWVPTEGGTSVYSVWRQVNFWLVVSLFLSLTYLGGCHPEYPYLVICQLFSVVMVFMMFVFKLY
T1 sequence (Q9GP40 whole entry partner): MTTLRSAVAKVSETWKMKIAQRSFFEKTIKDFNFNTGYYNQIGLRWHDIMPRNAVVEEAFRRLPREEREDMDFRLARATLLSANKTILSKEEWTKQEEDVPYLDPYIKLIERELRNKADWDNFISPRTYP
T1 sequence (A0A1Z4EAV8 26-648 partner): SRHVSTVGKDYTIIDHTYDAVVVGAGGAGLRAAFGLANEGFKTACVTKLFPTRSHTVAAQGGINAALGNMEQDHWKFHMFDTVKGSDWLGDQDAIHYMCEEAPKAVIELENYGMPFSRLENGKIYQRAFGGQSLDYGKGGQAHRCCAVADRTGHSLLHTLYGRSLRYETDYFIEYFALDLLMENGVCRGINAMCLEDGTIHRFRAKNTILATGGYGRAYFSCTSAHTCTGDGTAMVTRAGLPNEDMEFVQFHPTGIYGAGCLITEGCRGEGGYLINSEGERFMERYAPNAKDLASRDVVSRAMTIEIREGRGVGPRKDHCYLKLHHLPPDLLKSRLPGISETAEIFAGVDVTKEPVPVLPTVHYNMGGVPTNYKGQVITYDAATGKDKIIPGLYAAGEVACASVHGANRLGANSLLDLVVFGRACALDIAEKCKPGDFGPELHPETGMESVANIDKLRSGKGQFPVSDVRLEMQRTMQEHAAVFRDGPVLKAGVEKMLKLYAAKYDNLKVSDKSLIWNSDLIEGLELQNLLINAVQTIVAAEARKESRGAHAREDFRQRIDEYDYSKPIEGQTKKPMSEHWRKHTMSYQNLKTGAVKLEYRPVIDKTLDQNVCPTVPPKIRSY
T1 sequence (A0A1Z4EAX0 21-272 partner): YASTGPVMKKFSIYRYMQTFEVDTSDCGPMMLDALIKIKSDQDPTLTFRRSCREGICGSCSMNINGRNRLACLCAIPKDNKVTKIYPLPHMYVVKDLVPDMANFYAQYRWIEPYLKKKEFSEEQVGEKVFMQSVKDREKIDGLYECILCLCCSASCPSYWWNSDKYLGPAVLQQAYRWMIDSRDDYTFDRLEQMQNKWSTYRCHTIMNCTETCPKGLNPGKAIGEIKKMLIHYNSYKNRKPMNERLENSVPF
T1 sequence (A0A1Z4EAX1 53-194 partner): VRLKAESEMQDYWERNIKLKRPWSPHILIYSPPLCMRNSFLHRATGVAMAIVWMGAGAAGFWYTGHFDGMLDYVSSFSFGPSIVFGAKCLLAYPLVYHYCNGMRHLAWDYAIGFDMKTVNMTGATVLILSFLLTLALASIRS
T1 sequence (A0A1Z4EAW8 47-153 partner): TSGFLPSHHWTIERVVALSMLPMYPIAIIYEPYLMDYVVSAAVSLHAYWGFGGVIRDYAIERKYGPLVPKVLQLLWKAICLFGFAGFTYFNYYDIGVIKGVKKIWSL
From the text: spectrophotometric succinate-cytochrome c reductase assay, mitochondrial fraction on succinate-cytochrome c reductase (mitochondrial complexes II and III)

[2] = target: T2, mitochondrial complex I (NADH-ubiquinone reductase; NADH-decyl rhodoquinone reductase) (Echinococcus multilocularis, UniProt Q9TE76); assay: spectrophotometric NADH-quinone reductase assay, mitochondrial fraction; conditions: quinone acceptor decyl rhodoquinone (methods; table heads it NADH-ubiquinone reductase), 30 mM potassium phosphate, 1 mM MgCl2, pH 7.5, 25 °C
T2 construct: gene ND1; native multi-subunit complex I in freeze-thawed enriched mitochondrial fraction of protoscoleces; not purified
T2 sequence (Q9TE76 1-297): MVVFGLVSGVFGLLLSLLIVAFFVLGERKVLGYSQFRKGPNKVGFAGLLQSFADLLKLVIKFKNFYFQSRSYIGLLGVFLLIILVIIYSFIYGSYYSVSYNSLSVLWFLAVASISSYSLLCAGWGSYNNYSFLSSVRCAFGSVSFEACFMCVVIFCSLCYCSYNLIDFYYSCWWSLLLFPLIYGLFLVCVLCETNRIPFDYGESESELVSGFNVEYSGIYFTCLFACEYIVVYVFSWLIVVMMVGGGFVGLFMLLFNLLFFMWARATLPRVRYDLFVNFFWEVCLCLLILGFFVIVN
T2 sequence (A0A068Y9L9 30-218 partner): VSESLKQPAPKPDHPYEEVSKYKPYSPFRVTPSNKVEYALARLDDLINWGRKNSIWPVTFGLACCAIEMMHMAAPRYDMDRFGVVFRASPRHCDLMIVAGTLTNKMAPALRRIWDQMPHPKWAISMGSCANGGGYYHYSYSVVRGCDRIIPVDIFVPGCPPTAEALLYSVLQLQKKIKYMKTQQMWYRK
T2 sequence (A0A068YF50 31-207 partner): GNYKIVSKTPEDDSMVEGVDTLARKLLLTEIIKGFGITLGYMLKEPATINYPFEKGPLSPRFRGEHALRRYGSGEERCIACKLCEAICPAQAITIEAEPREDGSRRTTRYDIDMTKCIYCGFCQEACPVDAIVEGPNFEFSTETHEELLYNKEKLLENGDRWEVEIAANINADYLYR
From the text: spectrophotometric NADH-quinone reductase assay, mitochondrial fraction on mitochondrial complex I (NADH-ubiquinone reductase; NADH-decyl rhodoquinone reductase)

[3] = target: T3, mitochondrial complex II (succinate-quinone reductase, SQR) (Echinococcus multilocularis, UniProt A0A1Z4EAV8+A0A1Z4EAW8+A0A1Z4EAX0+A0A1Z4EAX1); assay: spectrophotometric succinate-quinone reductase assay, mitochondrial fraction; conditions: 30 mM potassium phosphate, 1 mM MgCl2, pH 7.5, 25 °C
T3 construct: gene SDHB1; native complex II in freeze-thawed enriched mitochondrial fraction of protoscoleces; not purified
T3 sequence (A0A1Z4EAX0 21-272): as the sequence (A0A1Z4EAX0 21-272 partner) above
T3 sequence (A0A1Z4EAX1 53-194): as the sequence (A0A1Z4EAX1 53-194 partner) above
T3 sequence (A0A1Z4EAW8 47-153): as the sequence (A0A1Z4EAW8 47-153 partner) above
T3 sequence (A0A1Z4EAV8 26-648): as the sequence (A0A1Z4EAV8 26-648 partner) above
From the text: spectrophotometric succinate-quinone reductase assay, mitochondrial fraction on mitochondrial complex II (succinate-quinone reductase, SQR)

[4] = read-out: NADH-ubiquinone reductase / (Complex I)
[5] = read-out: Succinate-quinone reductase: SQR / (Complex II)

| IC50 [1, 5] [µM] | IC50 [3, 5] [µM] | Compound | IC50 [1, 4] [µM] | IC50 [2] [µM] | IC50 [3, 4] [µM] |
| --- | --- | --- | --- | --- | --- |
| – | – | C[C@@H]1CC[C@H]2[C@@H](C)C(=O)O[C@@H]3O[C@@]4(C)CC[C@@H]1[C@]32OO4 [artemisinin] | > 40 | > 40 | > 40 |
| > 30 | > 30 | Cc1cc(/C=C/c2ccc3cc(N(C)C)ccc3[n+]2C)c(C)n1-c1ccccc1 [pyrvinium pamoate] | – | 11 ± 0.3 | – |
